Source: BindingDB's records for doi:10.1016/j.bmcl.2014.08.028 (Rhône-Poulenc Rorer, 2014)

Assay: Antagonist activity at CRTH2 receptor in human whole blood assessed as inhibition of PGD2-induced eosinophil shape change after 10 mins by fluorescence assay

Row | Structure (SMILES) | IC50
1 | Cc1ccc(-n2cc(CC(=O)O)c3ccc(C)nc32)c(Cn2c(C)nnc2C)c1 | 1 nM
2 | Cc1ccc2c(CC(=O)O)cn(-c3ccc(C(F)(F)F)cc3Cc3c(C4CC4)noc3C3CC3)c2n1 | 60 nM
3 | Cc1ccc2c(CC(=O)O)cn(-c3ccc(Cl)cc3Cn3c(C)nnc3C3CC3)c2n1 | 4 nM
4 | Cc1ccc2c(CC(=O)O)cn(-c3ccc(Cl)cc3Cn3c(C)nnc3CCc3ccccc3)c2n1 | 5 nM
5 | Cc1ccn2c(CC(=O)O)cc(-c3ccc(C(F)(F)F)cc3Cc3c(C)noc3C3CC3)c2n1 | 26 nM
6 | Cc1ccc2c(CC(=O)O)cn(-c3ccc(C(F)(F)F)cc3Cc3c(C)noc3C3CC3)c2n1 | 5 nM
7 | Cc1nnc(C2CC2)n1Cc1cc(C(F)(F)F)ccc1-n1cc(CC(=O)O)c2ccc(F)cc21 | 7 nM
8 | Cc1ccc2c(CC(=O)O)cn(-c3ccc(F)cc3Cc3c(C)noc3C3CC3)c2n1 | 1 nM
9 | Cc1ccc2c(CC(=O)O)cn(-c3ccc(Cl)cc3Cc3c(C4CC4)noc3C3CC3)c2n1 | 10 nM

More lines, in order of falling IC50, values ahead:

Row | IC50 | Structure (SMILES)
10 | 54 nM | Cc1noc(C2CC2)c1Cc1cc(C(F)(F)F)ccc1-c1cn(CC(=O)O)c2ccc(C(F)(F)F)nc12
11 | 16 nM | Cc1noc(C2CC2)c1Cc1cc(F)ccc1-c1cn(CC(=O)O)c2ccc(C(F)(F)F)cc12
12 | 6 nM | Cc1ccc2c(CC(=O)O)cn(-c3ccc(F)cc3Cc3c(C)cnn3C)c2n1
13 | 2 nM | Cc1ccc2c(CC(=O)O)cn(-c3ccc(Cl)cc3Cn3c(C)nnc3Cc3ccccc3)c2n1
14 | 2 nM | Cc1nnc(C2CC2)n1Cc1cc(C(F)(F)F)ccc1-c1cn(CC(=O)O)c2ccc(F)cc12
